The record followed here is patent publication US9040713B2, “Methods of managing blood sugar levels and compositions related thereto” (EMORY UNIVERSITY, priority 2010, dated 2015).

Molecules are shown by their SMILES.

One data set concerns EGFR. In words: EGFR phosphorylation in cells (immunoblotting). Type of data set: cell-based. The method, then: (A) DDN and CSN activate IR and its downstream signaling in CHO-IR cells. […] The cell lysates were analyzed by immunoblotting with anti-phospho-IR antibodies, or immunoprecipitated by PY20 and analyzed using anti-IR and anti-IRS-1, respectively. (B) DDN and CSN induce IR phosphorylation in a dose-dependent manner. CHO-IR cells were treated with the small compounds at different concentrations for 15 min, and the IR phosphorylation was monitored by immunoprecipitation and immunoblotting. (C) DDN, CSN induce IR phosphorylation in a time-dependent manner. […] (D) DDN and CSN induce IR phosphorylation and its downstream signaling in a dose-dependent manner. […] (E) DDN and CSN cannot induce IGF-1R or EGFR phosphorylation. CHO-IGF-1R or HEK293 cells were treated with EGF (100 nM), IGF-1 (100 nM), DDN (10 μM) or CSN (10 μM) for 15 min. The cell lysates were analyzed by immunoblotting with anti-pIGF-1R and anti-pEGFR.
(A) Chemical structure of 4524-E7. (B) Effect of 4524-E7 and other 1,4-naphthoquinone derivatives on IR phosphorylation in CHO-IR cells. CHO-IR cells were cultured in 96-well plates and treated with 5 μM compounds for 15 min at 37 C. Cells were lysed, and IR phosphorylations were tested by ELISA. The IR phosphorylation activities of the tested compounds were expressed as a percentage of the vehicle. (C) 4524-E7 and 1,4-naphthoquinone derivates activate IR and its downstream signaling in CHO-IR cells. […] The cell lysates were analyzed by immunoblotting with various indicated antibodies. The phosphorylated IR was immunoprecipitated using PY20 and analyzed by immunoblotting with anti-IR13 antibody. […] The phosphorylation of each receptor was determined by Western blot using specific antibodies as indicated. (E) 4524-E7 activates IR through its ICD. Upper panel: Diagram of chimaeric receptors. Lower panel: His-tagged wild-type IR, IGFR-IR, IR-IGFR, and IR-EGFR constructs were transfected into CHO cells followed vehicle or 5 μM 4524-E7 treatment for 30 min. Then the cells were lysated and the transfected receptor fused to His tag were pulled down with Ni+ beads, followed by western blot against anti-p-Tyr and anti-His. The cell lysates were tested with anti-p-Akt and anti-Akt.
A cell-based ELISA assay was developed with an IR stably transfected Chinese Hamster Ovary (CHO-IR) cell line. The cells were seeded in a 96-well plate and treated with 10 μM (15 min) compounds. The cell lysates were subjected to the sandwich ELISA using immobilized anti-phosphotyrosine antibody and anti-IR antibody. […] Among the positive hits, 1,4-naphthoquinone compounds were identified that can selectively activate IR but not IGF-1R (FIG. 1A). […] Total IR tyrosine phosphorylation was further confirmed by immunoprecipitation using anti-phosphotyrosine (PY20) antibody (FIG. 2A, 3rd panel). […]
(A western blot detects proteins with antibodies after separation by electrophoresis.)

The next data set has as its system mice. In words: Repeated dosing tolerability in mice. The format is in vivo, mouse. The method, then:
[…] Mice were chronically treated with 4524-E7 for 2 weeks and tested if the compound can inhibit food intake.
In liver and muscle, DDN elicited demonstrable IR activation after 3-4 h (FIG. 3B, 1st panel). […] The liver was then dissected and homogenized after 5 min. […] Similarly to the observation in C57/BL6 mice, DDN induces IR signaling in the well-established mice models of non-insulin-dependent diabetes mellitus.

Setting [1] is: C57BL/6J mice, 5 mg/kg daily oral, 16 days.

Take `O=C1c2ccccc2C(=O)C2SC(Nc3ccc(Cl)cc3)=NC12` (stereo not drawn) [4524-E7, 2-((4-chlorophenyl)amino)naphtho[2,3-d]thiazole-4,9(3aH,9aH)-dione]: in the data set with EGFR (EGFR-transfected HEK293 cells, 5 μM), the EGFR activation result is “not any other RTKs”. Besides, in the data set with EGFR (differentiated 3T3-L1 adipocytes), the EGFR activation entry is on record as “neither IGF-1R nor EGFR was activated”. Also, in the data set on mice (5 mg/kg, 2 weeks), the blood chemistry analysis result is “comparable results between drug-treated mice and vehicle control”; the “food intake and body weight compared to vehicle control” value is “not significantly changed”. The “pathological examination on all major organs” value in the data set on mice (two week period) was “no demonstrable toxicity was detected”.
Regarding `CC(=O)Oc1ccc(OC(C)=O)c2c1C(=O)C(Cl)=C(Cl)C2=O` [DDN, 5,8-diacetyloxy-2,3-dichloro-1,4-naphthoquinone], in the data set with EGFR (HEK293 cells, 10 μM, 15 min), the EGFR activation entry was “Neither IGF-1R nor EGFR was activated”. Also, in the data set with mice (setting [1]), the “food intake and blood biochemistry” value is “did not affect the food intake, or blood biochemistry”; the “pathological examination of brain, heart, liver, kidney and muscle” value was “failed to detect any demonstrable toxicity”. In the data set on mice (administrated to animals for two weeks), the side effects result is recorded as “does not exhibit any intolerable side effects”.
